# Reference: paper PMC12670160, “A drug-repurposing screen of FDA- and EMA-approved drugs identifies two NF-κB inhibitors active against eumycetoma” (Journal of Antimicrobial Chemotherapy, 2025)
# “Also recorded” adds a separate entry of the source. Read-outs that look alike come from different tables or passages of the source.
# Tests used:
# [1] = test system: M. mycetomatis isolate MM55; assay: Oncode library screen at 2 µM, CLSI-based in vitro susceptibility assay with CellTiter-Glo (metabolic activity); format: cell-based, Madurella mycetomatis; details: primary screen, strain MM55, 20% or below = inhibition
# Protocol: M. mycetomatis isolate MM55 was used to screen the Oncode library. This strain was kindly provided by Prof. A. Fahal of the Mycetoma Research Centre in 1999. The most promising hit compounds were also screened against M. mycetomatis isolates P1 and I1, which originated from Mali and India, respectively.[17] The three M. mycetomatis isolates were identified by ITS sequencing and maintained at −80°C at Erasmus MC. Prior to in vitro screening, isolates were cultured on Sabouraud agar plates (BD, Erembodegem, Belgium) at 37°C.
# The Oncode Drug Repurposing library was based on the drug repurposing library from the Drug Repurposing Hub of the Broad Institute and recreated by the Oncode institute.[13] The library contained 5631 drugs.[18] A copy of this library was plated out on 384-well plates with lids (cat no. 655180; Greiner Bio-One, Alphen aan den Rijn, The Netherlands) by the Leiden University Medical Center. Each well of the 384-well plates contained 0.6 µL of a 200 µM stock concentration of compound, resulting in a final concentration of 2 µM when the fungus was added. From the previous libraries we screened, we noted that there are several compounds able to inhibit M. mycetomatis at this concentration in vitro. Furthermore, this concentration could also be reached in the G. mellonella larvae.[8],[11] The prepared 384-well plates were transferred on dry ice to the Erasmus MC and stored at −80°C until they were screened. We created a second library from the original library, containing only those 29 compounds that were active in the first screen.
# (§1) . Each plate also contained a growth control (60 µL of M. mycetomatis hyphal suspension, plus 0.6 µL of DMSO) and a negative control (60 µL of culture medium, plus 0.6 µL of DMSO). Plates were then incubated for 4 days at 37°C, after which 30 µL of CellTiter-Glo 3D Cell Viability reagent was added to every well.[19] After 25 min of incubation at room temperature, the luminescence was measured with a CytoFluor Series 4000 luminometer (PerSeptive Biosystems, Framingham, MA, USA). To determine the metabolic activity, the following formula was used:
# (§2) Percentagemetabolicactivity=(Absorbancetestluminensence−AbsorbanceNCluminensence/AbsorbanceGCluminensence−AbsorbanceNCluminensence)×100
# (§3) where, GC is growth control and NC is negative control. The luminescence measured for the GC is considered as 100% metabolic activity. The luminescence for the NC is considered as 0% metabolic activity.
# [2] = test system: itraconazole-susceptible and itraconazole-resistant Aspergillus fumigatus; parameters: method as in PMID 37037064; details: cited from earlier work
# thioredoxin reductase = test system: thioredoxin reductase; parameters: method as in PMID 39816643; details: cited from earlier work
# M. mycetomatis [3] = assay: In vitro susceptibility, averages over M. mycetomatis isolates (average metabolic activity at 2 µM, mean MIC); format: cell-based; details: Madurella mycetomatis, 96 h, 4 days at 37°C, CellTiter-Glo, average of 3 isolates, 20% or below = inhibition
# Protocol: M. mycetomatis isolate MM55 was used to screen the Oncode library. This strain was kindly provided by Prof. […] The three M. mycetomatis isolates were identified by ITS sequencing and maintained at −80°C at Erasmus MC. Prior to in vitro screening, isolates were cultured on Sabouraud agar plates (BD, Erembodegem, Belgium) at 37°C.
# The Oncode Drug Repurposing library was based on the drug repurposing library from the Drug Repurposing Hub of the Broad Institute and recreated by the Oncode institute.[13] […] Each well of the 384-well plates contained 0.6 µL of a 200 µM stock concentration of compound, resulting in a final concentration of 2 µM when the fungus was added. […] Furthermore, this concentration could also be reached in the G. mellonella larvae.[8],[11] The prepared 384-well plates were transferred on dry ice to the Erasmus MC and stored at −80°C until they were screened.
# as §1, with “Each” for “. Each”
# as §2, §3
# [4] = test system: M. mycetomatis strain mm55; assay: IC50 and MIC determination, CellTiter-Glo, strain mm55; format: cell-based, Madurella mycetomatis; details: Madurella mycetomatis; for IC50: concentration inhibiting 50% of fungal hyphae growth; for MIC: concentration with complete growth inhibition
# M. mycetomatis strain P1 [5] = assay: IC50 and MIC determination, CellTiter-Glo, strain P1; format: cell-based, Madurella mycetomatis; details: Madurella mycetomatis, P1
# M. mycetomatis strain I1 [6] = assay: IC50 and MIC determination, CellTiter-Glo, strain I1; format: cell-based, Madurella mycetomatis; details: Madurella mycetomatis, I1
# [7] = test system: healthy uninfected G. mellonella larvae; details: 20 µL of 20 µM injected
# Protocol: (§4) For in vivo experiments, sixth-week instar G. mellonella larvae were purchased from Blue-Lagoon, Maassluis, The Netherlands. The larvae were raised and kept in the dark at room temperature. Larvae without any discoloration and weighing around 500 mg were selected for experiments.
# To determine the toxicity, 15 healthy uninfected larvae were injected with 20 µL of 20 µM compound as previously described.[16] […] As a control, a separate group of larvae were injected with 20 µL of PBS. Larvae were housed in Petri dishes with Whatman paper at 37°C in the dark. Survival was monitored for 10 days.
# [8] = test system: M. mycetomatis MM55-infected G. mellonella larvae; assay: Therapeutic efficacy in M. mycetomatis-infected G. mellonella larvae (survival, log-rank); format: in vivo, Galleria mellonella; details: 20 µL of 20 µM at 4, 28 and 52 h post infection; 10 days
# Protocol: as §4
# The wet weight was determined and 10 mL of PBS per gram of mycelia was added. The suspension was then sonicated for 2 min to achieve a particle size of 10 µm. The fungal suspension (4 mg/40 µL) was injected into the last left pro-leg of a healthy G. mellonella larva with an insulin 29G U-100 needle to reach a final inoculum of 4 mg/larva. Larvae were placed in Petri dishes containing Whatman paper in a 37°C incubator.
# A control group was also included in which M. mycetomatis-infected larvae were treated with PBS or with 1 mg/kg amphotericin B (Fungizone, Bristol Myers Squibb, Utrecht, The Netherlands). […] The treatment was repeated at 28 h post infection and 52 h post infection via different prolegs. The infection was monitored for 10 days.
# To compare the survival rates between PBS treatment control and the different experimental groups a log-rank test was performed. All data were processed and performed in GraphPad Prism 10.
# M. mycetomatis [9] = assay: In vitro susceptibility, averages over M. mycetomatis isolates (average metabolic activity at 2 µM, mean MIC); format: cell-based, Madurella mycetomatis; details: Madurella mycetomatis; mean/average over strains MM55, P1 and I1
# M. mycetomatis [10] = test system: M. mycetomatis; parameters: method as in PMID 35398930, PMID 15793113, PMID 36005544, PMID 34181477, PMID 22964246; details: against M. mycetomatis; cited from earlier work
# [11] = test system: M. mycetomatis-infected G. mellonella larvae; details: only at concentrations higher than used in human patients; cited from earlier work
# eumycetoma = details: first 6 months of treatment, cited from earlier work
# M. mycetomatis strain I1 [12] = assay: microbe, parasite or virus in culture; parameters: species or system Madurella mycetomatis hyphae; details: Madurella mycetomatis, I1, 96 h
# Protocol: (§5) The Oncode Drug Repurposing library was based on the drug repurposing library from the Drug Repurposing Hub of the Broad Institute and recreated by the Oncode institute.[13] The library contained 5631 drugs.[18] A copy of this library was plated out on 384-well plates with lids (cat no. 655180; Greiner Bio-One, Alphen aan den Rijn, The Netherlands) by the Leiden University Medical Center. Each well of the 384-well plates contained 0.6 µL of a 200 µM stock concentration of compound, resulting in a final concentration of 2 µM when the fungus was added. From the previous libraries we screened, we noted that there are several compounds able to inhibit M. mycetomatis at this concentration in vitro. Furthermore, this concentration could also be reached in the G. mellonella larvae.[8],[11] The prepared 384-well plates were transferred on dry ice to the Erasmus MC and stored at −80°C until they were screened. We created a second library from the original library, containing only those 29 compounds that were active in the first screen. […] To determine the in vitro susceptibility of M. mycetomatis to the compounds, a hyphal inoculum was prepared as described elsewhere.[19] This M. mycetomatis hyphal suspension (60 µL) was added to each of the wells in the 384-well plate, leading to a final testing concentration of 2 µM per compound. Each plate also contained a growth control (60 µL of M. mycetomatis hyphal suspension, plus 0.6 µL of DMSO) and a negative control (60 µL of culture medium, plus 0.6 µL of DMSO). Plates were then incubated for 4 days at 37°C, after which 30 µL of CellTiter-Glo 3D Cell Viability reagent was added to every well.[19] After 25 min of incubation at room temperature, the luminescence was measured with a CytoFluor Series 4000 luminometer (PerSeptive Biosystems, Framingham, MA, USA). To determine the metabolic activity, the following formula was used: For each of these 29 active compounds, the IC50 and MIC were determined for M. mycetomatis strains MM55, P1 and I1 (Table 1 and Table S1).
# M. mycetomatis strain P1 [13] = assay: microbe, parasite or virus in culture; parameters: species or system Madurella mycetomatis hyphae; details: Madurella mycetomatis, P1, 96 h
# Protocol: as §5
# [14] = test system: M. mycetomatis strain mm55; assay: microbe, parasite or virus in culture; parameters: species or system Madurella mycetomatis hyphae; details: Madurella mycetomatis, MM55, 96 h
# Protocol: as §5
structure (smiles),measurement,setting,value
COC(=O)C1=C(C#N)NC(C)=C(C(=O)OC(C)C)C1c1cccc([N+](=O)[O-])c1 (stereo not drawn) [nilvadipine arc029],Madurella mycetomatis metabolic activity at 2µM (%),[1],85.2%
CC(=O)OC[C@H]1O[C@@H]([S-])[C@H](OC(C)=O)[C@@H](OC(C)=O)[C@@H]1OC(C)=O.CCP(CC)CC.[Au+] [auranofin],Aspergillus biofilm formation,[2],inhibitory activity
same,antifungal activity,[2]; itraconazole-susceptible and itraconazole-resistant A. fumigatus,potent antifungal activity
same,thioredoxin reductase inhibition,thioredoxin reductase,able to inhibit thioredoxin reductase
CC(C)(C)c1ccc(S(=O)(=O)/C=C/C#N)cc1 [bay117085],activity at 2 µM,M. mycetomatis [3],4%
same,IC50,[4],1.51 µM
same,MIC,[4],2 µM
same,IC50,M. mycetomatis strain P1 [5],0.85 µM
same,MIC,M. mycetomatis strain P1 [5],2 µM
same,IC50,M. mycetomatis strain I1 [6],0.72 µM
same,MIC,M. mycetomatis strain I1 [6],1 µM
same,Toxicity in G. mellonella larvae at 20 µM,"[7]; 10 day observation, toxic if more than 20% of larvae died",not toxic
same,larval survival,"[7]; 10 days, uninfected larvae",above 80%
same,Survival of M. mycetomatis-infected larvae versus PBS,[8],prolonged the survival; also recorded: prolonged larval survival
same,thioredoxin reductase inhibition,thioredoxin reductase,able to inhibit thioredoxin reductase
CC[C@@H]([C@H](C)O)n1ncn(-c2ccc(N3CCN(c4ccc(OC[C@@H]5CO[C@@](Cn6cncn6)(c6ccc(F)cc6F)C5)cc4)CC3)cc2)c1=O [Posaconazole],activity at 2 µM,M. mycetomatis [3],1.9%
same,IC50,[4],0.13 µM
same,MIC,[4],0.25 µM
same,IC50,M. mycetomatis strain P1 [5],< 0.03 µM
same,MIC,M. mycetomatis strain P1 [5],0.03 µM
same,IC50,M. mycetomatis strain I1 [6],< 0.03 µM
same,MIC,M. mycetomatis strain I1 [6],0.03 µM
same,MIC,M. mycetomatis [9],< 0.03 µM
same,MIC50,M. mycetomatis [10],0.03 µg/mL
same,larval survival,[11],Prolonged survival
C[C@@H](c1nc(-c2ccc(C#N)cc2)cs1)[C@@](Cn1cncn1)(OCOP(=O)(O)O)c1ccc(F)cc1F [fosravuconazole],lesion size or β-glucan levels,eumycetoma; 200 mg/week,no reduction
same,lesion size or β-glucan levels,eumycetoma; 300 mg/week,no reduction
Cc1ccc(-c2c(-c3nn(C)c4ncnc(N5CC[C@H](N6CCCCC6)C5)c34)cnn2C)cc1 [pf4981517],Madurella mycetomatis metabolic activity at 2µM (%),[1],79.1%
CC(C)OC(=O)C1=CN(C(=O)c2ccc(F)c(F)c2)CC(C)(C)c2c1[nH]c1ccccc21 [turofexorate isopropyl xl335],Madurella mycetomatis metabolic activity at 2µM (%),[1],92.4%
"Cc1c(N)nc([C@H](CC(N)=O)NC[C@H](N)C(N)=O)nc1C(=O)N[C@H](C(=O)N[C@H](C)[C@@H](O)[C@H](C)C(=O)N[C@H](C(=O)NCCc1nc(-c2nc(C(=O)NCCCNCCCCN)cs2)cs1)[C@@H](C)O)[C@@H](O[C@@H]1O[C@@H](CO)[C@@H](O)[C@H](O)[C@@H]1O[C@@H]1O[C@H](CO)[C@@H](O)[C@H](OC(N)=O)[C@@H]1O)c1cnc[nH]1 [ONC0002990, bleomycetin]",IC50,M. mycetomatis strain I1 [12],0.2 µM
same,MIC,M. mycetomatis strain I1 [12],0.5 µM
same,IC50,M. mycetomatis strain P1 [13],< 0.03 µM
same,MIC,M. mycetomatis strain P1 [13],< 0.03 µM
same,IC50,[14],0.21 µM
same,MIC,[14],0.5 µM
O=C(NC[C@H]1CN(c2ccc(N3CCOCC3=O)cc2)C(=O)O1)c1ccc(Cl)s1 [rivaroxaban xarelto],Madurella mycetomatis metabolic activity at 2µM (%),[1],98.3%
